Consider 22 compounds from patent publication US11000491B2, “Amino-aryl-benzamide compounds and methods of use thereof” (HEPANOVA, INC., priority 2017, dated 2021).

Where two headings read alike, the source gives them in different places.

What all share (type): cell-based
In one experiment the test system is Huh7 cells. Description: LD content in Huh7 cells pre-treated with insulin, Oil-Red-O staining, absorbance OD 540 nm. As to conditions: procedure of Example 3, read-out: LD content inhibition (EC50). Summed up:
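Huh7 cells, mock-treated or pre-treated with 1 mM insulin, were then exposed to compound at the indicated amounts. Lipid droplets stained with Oil Red O and quantified by absorbance at OD 540 nm.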

Another experiment has as its system SREBP-1. The experiment in a line: SREBP-1 expression in cultured primary human hepatocytes. As to conditions: procedure of Example 6, read-out: SREBP-1 mRNA inhibition (EC50). The essentials: (§1)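 Primary human hepatocytes in culture exposed to a range of HPN-01 derivative concentrations; SREBP-1 and SREBP-2 mRNA expression then measured to assess inhibition.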

The subject of the next experiment is SREBP-2. Description: SREBP-2 expression in cultured primary human hepatocytes. As to conditions: procedure of Example 6, read-out: SREBP-2 mRNA inhibition (EC50). Summed up: as §1
Setting [1] is: Homo sapiens, Huh-7, Huh7 cells.

Regarding `NC(=O)c1cc(/C=C/C(=O)NCc2ccccc2)cc(-c2ccc(S(N)(=O)=O)cc2)c1N` [HPN-01131, (E)-2-amino-5-(3-(benzylamino)-3-oxoprop-1-en-1-yl)-4′-sulfamoyl-[1,1′-biphenyl]-3-carboxamide], the EC50 amounted to 0.38 µM with Huh7 cells (setting [1]); 1.28 µM with SREBP-1 (Homo sapiens, Hepatocyte); 2.26 µM with SREBP-2 (Homo sapiens, Hepatocyte).
`Nc1c(C(=O)Nc2cccc(F)c2)cc(-c2ccc(Br)cc2)cc1-c1ccc(S(N)(=O)=O)cc1` [HPN-01614, 4′-amino-4-bromo-N-(3-fluorophenyl)-4″-sulfamoyl-[1,1′:3′,1″-terphenyl]-5′-carboxamide]: the concentration for a half-maximal effect (EC50) amounted to 0.82 µM with Huh7 cells (setting [1]); 5.65 µM in the experiment with SREBP-1 (Homo sapiens, Hepatocyte); 8.6 µM in the experiment with SREBP-2 (Homo sapiens, Hepatocyte).
`Nc1c(C(=O)Nc2ccccc2)cc(-c2ccc(Br)cc2)cc1-c1ccc(S(N)(=O)=O)cc1` [HPN-01612, 4′-amino-4-bromo-N-phenyl-4″-sulfamoyl-[1,1′:3′,1″-terphenyl]-5′-carboxamide]: the EC50 in the experiment on Huh7 cells (setting [1]) was 0.64 µM; in the experiment with SREBP-1 (Homo sapiens, Hepatocyte), 3.11 µM; with SREBP-2 (Homo sapiens, Hepatocyte) it was 5.48 µM.
For the compound `NC(=O)c1cc(-c2ccc(Cl)cc2)cc(Oc2cccc(S(N)(=O)=O)c2)c1N` [HPN-01412, 4-amino-4′-chloro-5-(3-sulfamoylphenoxy)-[1,1′-biphenyl]-3-carboxamide], the EC50 in the experiment on Huh7 cells (setting [1]) worked out at 2.07 µM; with SREBP-1 (Homo sapiens, Hepatocyte), 3.09 µM; in the experiment with SREBP-2 (Homo sapiens, Hepatocyte) it was 6.11 µM.
With “(E)-2-amino-5-styryl-4′-sulfamoyl-[1,1′-biphenyl]-3-carboxamide [HPN-01101]”, the EC50 was 0.57 µM in the experiment with Huh7 cells (Huh7 cells), 2.96 µM in the experiment with SREBP-1 and 6.98 µM in the experiment on SREBP-2.
With `Nc1c(C(=O)Nc2cc[nH]c2)cc(-c2ccc(Cl)cc2)cc1-c1ccc(S(N)(=O)=O)cc1` [HPN-01628, 4′-amino-4-chloro-N-(1H-pyrrol-3-yl)-4″-sulfamoyl-[1,1′:3′,1″-terphenyl]-5′-carboxamide], the EC50 with Huh7 cells (setting [1]) turned out to be 1.16 µM; in the experiment on SREBP-1 (Homo sapiens, Hepatocyte) it was 2.39 µM; in the experiment on SREBP-2 (Homo sapiens, Hepatocyte), 5.48 µM.
As to “4′-acetamido-4-chloro-4″-ureido-[1,1′:3′,1″-terphenyl]-5′-carboxamide [HPN-01505]”, the results for the EC50 in the experiment with Huh7 cells (Huh7 cells), with SREBP-1 and in the experiment with SREBP-2 were 0.59 µM, 1.36 µM and 2.41 µM, respectively.
On to `NC(=O)c1cc(C#CCOC(=O)c2ccc[nH]2)cc(-c2ccc(S(N)(=O)=O)cc2)c1N` [HPN-01222, 3-(6-amino-5-carbamoyl-4′-sulfamoyl-[1,1′-biphenyl]-3-yl)prop-2-yn-1-yl 1H-pyrrole-2-carboxylate], for which the EC50 was determined as 1.36 µM in the experiment on Huh7 cells (setting [1]); 7.31 µM with SREBP-1 (Homo sapiens, Hepatocyte); 12.8 µM in the experiment with SREBP-2 (Homo sapiens, Hepatocyte).
Take `CCOC(=O)c1ccc(-c2cc(C(N)=O)c(N)c(-c3ccc(S(N)(=O)=O)cc3)c2)cc1` [HPN-01302, ethyl 4′-amino-5′-carbamoyl-4″-sulfamoyl-[1,1′:3′,1″-terphenyl]-4-carboxylate]: the EC50 with Huh7 cells (setting [1]) worked out at 1.03 µM; in the experiment on SREBP-1 (Homo sapiens, Hepatocyte), 3.16 µM; in the experiment on SREBP-2 (Homo sapiens, Hepatocyte), 4.52 µM.
As for `CCC(=O)Oc1ccc(-c2cc(C(N)=O)c(N)c(-c3ccc(S(N)(=O)=O)cc3)c2)cc1` [HPN-01305, 4′-amino-5′-carbamoyl-4″-sulfamoyl-[1,1′:3′,1″-terphenyl]-4-yl propionate], the EC50 is 0.82 µM with Huh7 cells (setting [1]); 1.74 µM in the experiment with SREBP-1 (Homo sapiens, Hepatocyte); 3.9 µM in the experiment on SREBP-2 (Homo sapiens, Hepatocyte).
Take “2-amino-5-((3-chlorophenyl)ethynyl)-4′-sulfamoyl-[1,1′-biphenyl]-3-carboxamide [HPN-01206]”: the EC50 with Huh7 cells (Huh7 cells) amounted to 0.9 µM; in the experiment on SREBP-1, 1.68 µM; with SREBP-2 it was 1.07 µM.
On to `NC(=O)c1cc(-c2ccc(Cl)cc2)cc(-c2ccc(-c3c[nH]nn3)cc2)c1N` [HPN-01421, 4′-amino-4-chloro-4″-(1H-1,2,3-triazol-4-yl)-[1,1′:3′,1″-terphenyl]-5′-carboxamide], for which the EC50 is 0.75 µM in the experiment on Huh7 cells (setting [1]); 1.51 µM in the experiment on SREBP-1 (Homo sapiens, Hepatocyte); 2.22 µM in the experiment with SREBP-2 (Homo sapiens, Hepatocyte).
For `NC(=O)c1cc(C#Cc2ccc(Cl)cc2)cc(-c2ccc(S(N)(=O)=O)cc2)c1N` [HPN-01205, 2-amino-5-((4-chlorophenyl)ethynyl)-4′-sulfamoyl-[1,1′-biphenyl]-3-carboxamide] the same measures were 0.52 µM, 1.75 µM and 2.09 µM.
For the compound `NC(=O)c1cc(-c2ccc(Cl)cc2)cc(Nc2cccc(S(N)(=O)=O)c2)c1N` [HPN-01413, 4-amino-4′-chloro-5-((3-sulfamoylphenyl)amino)-[1,1′-biphenyl]-3-carboxamide], the EC50 worked out at 0.74 µM in the experiment on Huh7 cells (setting [1]); 1.52 µM in the experiment with SREBP-1 (Homo sapiens, Hepatocyte); 2.7 µM with SREBP-2 (Homo sapiens, Hepatocyte).
Take `Nc1c(C(=O)NCCO)cc(-c2ccc(Br)cc2)cc1-c1ccc(S(N)(=O)=O)cc1` [HPN-01608, 4′-amino-4-bromo-N-(2-hydroxyethyl)-4″-sulfamoyl-[1,1′:3′,1″-terphenyl]-5′-carboxamide]: the EC50 with Huh7 cells (setting [1]) was 1.2 µM; in the experiment with SREBP-1 (Homo sapiens, Hepatocyte), 2.39 µM; in the experiment with SREBP-2 (Homo sapiens, Hepatocyte), 4.31 µM.
For the compound `NS(=O)(=O)c1ccc(-c2cc(-c3ccc(Br)cc3)cc3c(=O)[nH]c(=O)[nH]c23)cc1` [HPN-01610, 4-(6-(4-bromophenyl)-2,4-dioxo-1,2,3,4-tetrahydroquinazolin-8-yl)benzene sulfonamide], the EC50 was found to be 1.16 µM in the experiment on Huh7 cells (setting [1]); 2 µM in the experiment with SREBP-1 (Homo sapiens, Hepatocyte); 3.44 µM in the experiment with SREBP-2 (Homo sapiens, Hepatocyte).
`COc1ccccc1C(=O)OCC#Cc1cc(C(N)=O)c(N)c(-c2ccc(S(N)(=O)=O)cc2)c1` [HPN-01217, 3-(6-amino-5-carbamoyl-4′-sulfamoyl-[1,1′-biphenyl]-3-yl)prop-2-yn-1-yl 2-methoxybenzoate]: the EC50 with Huh7 cells (setting [1]) was 0.18 µM; in the experiment on SREBP-1 (Homo sapiens, Hepatocyte) it was 1.03 µM; in the experiment on SREBP-2 (Homo sapiens, Hepatocyte) it was 2.07 µM.
For the compound `NC(=O)c1cc(-c2ccc(Cl)cc2)cc(Nc2ccc(S(N)(=O)=O)cc2)c1N` [HPN-01402, 4-amino-4′-chloro-5-((4-sulfamoylphenyl)amino)-[1,1′-biphenyl]-3-carboxamide], the half-maximal effective concentration (EC50) was found to be 0.6 µM with Huh7 cells (setting [1]); 1.18 µM with SREBP-1 (Homo sapiens, Hepatocyte); 2.5 µM with SREBP-2 (Homo sapiens, Hepatocyte).
As to `CCCC(=O)Nc1c(C(N)=O)cc(-c2ccc(Cl)cc2)cc1-c1ccc(NC(N)=O)cc1` [HPN-01519, 4′-butyramido-4-chloro-4″-ureido-[1,1′:3′,1″-terphenyl]-5′-carboxamide], the EC50 in the experiment with Huh7 cells (setting [1]) is 0.81 µM; with SREBP-1 (Homo sapiens, Hepatocyte), 1.51 µM; with SREBP-2 (Homo sapiens, Hepatocyte) it was 2.75 µM.
For `NC(=O)c1cc(C2CCC(Br)CC2)cc(-c2ccc(S(N)(=O)=O)cc2)c1N` (stereo not drawn) [HPN-01322, 2-amino-5-(4-bromocyclohexyl)-4′-sulfamoyl-[1,1′-biphenyl]-3-carboxamide] the same measures were 0.83 µM, 1.62 µM and 2.55 µM.
On the same counts, the results for `NCC(=O)Nc1c(C(N)=O)cc(-c2ccc(Br)cc2)cc1-c1ccc(S(N)(=O)=O)cc1` [HPN-01527, 4′-(2-aminoacetamido)-4-bromo-4″-sulfamoyl-[1,1′:3′,1″-terphenyl]-5′-carboxamide] are 2.6 µM, 5.25 µM and 5.69 µM.
For “(E)-2-amino-5-(3-(cyclohexylamino)-3-oxoprop-1-en-1-yl)-4′-sulfamoyl-[1,1′-biphenyl]-3-carboxamide [HPN-01133]”, the results for the EC50 with Huh7 cells (Huh7 cells), in the experiment with SREBP-1 and with SREBP-2 were 0.7 µM, 2.55 µM and 3.07 µM, respectively.

The term EC50 denotes the midpoint of the concentration-response curve.
